Assay results published in patent publication US10105357B2, “Indication of antibiotic drugs for preparation of cancer inhibition pharmaceutical composition” (LAUNX BIOMEDICAL CO., LTD., priority 2014, dated 2018).
Read-outs that look alike come from different tables or passages of the source.

Experiments:
[1] = system: A549 (Lung Adenocarcinoma); experiment: Cell viability analysis, lung cancer A549; assay type: cell-based, human; conditions: Homo sapiens, A549, 72 h
[2] = system: MKN-45 (Gastric Adenocarcinoma); experiment: Cell viability analysis, gastric cancer MKN-45; assay type: cell-based, human; conditions: Homo sapiens, MKN-45, 72 h
[3] = system: BxPC-3; experiment: Cell viability analysis, pancreatic cancer BxPC-3; assay type: cell-based, human; conditions: Homo sapiens, BXPC-3, 72 h, read-out: The results of antibiotic drug inhibiting cancer cell lines (cell viability analysis), BxPC-3
[4] = system: T24; experiment: Cell viability analysis, bladder cancer T24; assay type: cell-based, human; conditions: Homo sapiens, T-24, 72 h, read-out: The results of antibiotic drug inhibiting cancer cell lines (cell viability analysis), T24
[5] = system: MCF7 (Mammary Gland, Adenocarcinoma); experiment: Cell viability analysis, breast cancer MCF7; assay type: cell-based, human; conditions: Homo sapiens, MCF7, 72 h
[6] = system: TOV-21G; experiment: Cell viability analysis, ovarian cancer TOV-21G; assay type: cell-based, human; conditions: Homo sapiens, TOV21G, 72 h, read-out: The results of antibiotic drug inhibiting cancer cell lines (cell viability analysis), TOV-21G
[7] = system: MDA-MB-231 (Mammary Gland, Adenocarcinoma); experiment: Cell viability analysis, breast cancer MDA-MB-231; assay type: cell-based, human; conditions: Homo sapiens, MDA-MB-231, 72 h, read-out: The results of antibiotic drug inhibiting cancer cell lines (cell viability analysis), MDA-MB231
[8] = system: 786-O (Renal adenocarcinoma); experiment: Cell viability analysis, renal cancer 786-O; assay type: cell-based, human; conditions: Homo sapiens, 786-0, 72 h, read-out: The results of antibiotic drug inhibiting cancer cell lines (cell viability analysis), 786-O
[9] = system: LoVo (Colorectal Adenocarcinoma); experiment: Cell viability analysis, colon cancer LoVo; assay type: cell-based, human; conditions: Homo sapiens, LoVo, 72 h
[10] = system: AGS (Gastric Adenocarcinoma); experiment: Cell viability analysis, gastric cancer AGS; assay type: cell-based, human; conditions: Homo sapiens, 72 h
[11] = system: Hep3B (hepatocellular carcinoma); experiment: Cell viability analysis, hepatic cancer Hep3B; assay type: cell-based, human; conditions: Homo sapiens, Hep3B, 72 h, read-out: The results of antibiotic drug inhibiting cancer cell lines (cell viability analysis), Hep3B
[12] = system: HeLa (Cervix Adenocarcinoma); experiment: Cell viability analysis, cervical cancer HeLa; assay type: cell-based, human; conditions: Homo sapiens, HeLa, 72 h
[13] = system: AsPC-1; experiment: Cell viability analysis, pancreatic cancer AsPC-1; assay type: cell-based, human; conditions: Homo sapiens, ASPC1, 72 h, read-out: The results of antibiotic drug inhibiting cancer cell lines (cell viability analysis), AsPC-1
[14] = system: HL-60 (Acute Promyelocytic Leukemia); experiment: Cell viability analysis, leukemia HL-60; assay type: cell-based, human; conditions: Homo sapiens, HL-60, 72 h, read-out: cell viability (survival rate), HL-60, drug 10 μM, 72 hours, WST-1, OD450 nm
[15] = system: PC3 (p53−) (Prostate Adenocarcinoma); experiment: Cell viability analysis, prostate cancer PC3; assay type: cell-based, human; conditions: Homo sapiens, 72 h
[16] = system: TSGH-8301 (Urinary Bladder Carcinoma); experiment: Cell viability analysis, bladder cancer TSGH-8301; assay type: cell-based, human; conditions: Homo sapiens, 72 h
[17] = system: HepG2 (Hepatocellular Carcinoma); experiment: Cell viability analysis, hepatic cancer HepG2; assay type: cell-based, human; conditions: Homo sapiens, HepG2, 72 h
[18] = system: NIH: OVCAR-3; experiment: Cell viability analysis, ovarian cancer NIH: OVCAR-3; assay type: cell-based, human; conditions: Homo sapiens, OVCAR-3, 72 h, read-out: The results of antibiotic drug inhibiting cancer cell lines (cell viability analysis), NIH-OVCAR-3
[19] = system: U-2OS; experiment: Cell viability analysis, osteosarcoma U-2OS; assay type: cell-based, human; conditions: Homo sapiens, U2OS, 72 h, read-out: The results of antibiotic drug inhibiting cancer cell lines (cell viability analysis), U2OS
[20] = system: HI650 (Lung Adenocarcinoma); experiment: Cell viability analysis, lung cancer HI650; assay type: cell-based, human; conditions: Homo sapiens, NCI-H1650, 72 h
[21] = system: SAS (Tongue squamous cell carcinoma); experiment: Cell viability analysis, tongue cancer SAS; assay type: cell-based, human; conditions: Homo sapiens, 72 h, read-out: The results of antibiotic drug inhibiting cancer cell lines (cell viability analysis), SAS
[22] = system: HCT116 (p53+) (Colorectal Carcinoma)
[23] = system: A375 (Amelanotic Melanoma); experiment: Cell viability analysis, skin cancer A375; assay type: cell-based, human; conditions: Homo sapiens, A-375, 72 h
[24] = system: C-33A (Cervical carcinoma); experiment: Cell viability analysis, cervical cancer C-33A; assay type: cell-based, human; conditions: Homo sapiens, C-33-A, 72 h, read-out: The results of antibiotic drug inhibiting cancer cell lines (cell viability analysis), C-33A
[25] = system: BCC (basal cell carcinoma); experiment: Cell viability analysis, skin cancer BCC; assay type: cell-based, human; conditions: Homo sapiens, 72 h, read-out: The results of antibiotic drug inhibiting cancer cell lines (cell viability analysis), BCC
[26] = system: cancer cell lines; experiment: Cell viability analysis (WST-1) on cancer cell lines; assay type: cell-based, human; conditions: drug 10 μM, 72 hours, WST-1; Table 3
[27] = read-out: The results of antibiotic drug inhibiting cancer cell lines (cell viability analysis), A549, A549, repeated experiment
[28] = read-out: cell viability (survival rate), A549, drug 10 μM, 72 hours, WST-1, OD450 nm
[29] = read-out: The results of antibiotic drug inhibiting cancer cell lines (cell viability analysis), MKN-45, MKN-45, repeated experiment
[30] = read-out: cell viability (survival rate), MKN-45, drug 10 μM, 72 hours, WST-1, OD450 nm
[31] = read-out: The results of antibiotic drug inhibiting cancer cell lines (cell viability analysis), MCF-7, MCF-7, repeated experiment
[32] = read-out: cell viability (survival rate), MCF7, drug 10 μM, 72 hours, WST-1, OD450 nm
[33] = read-out: The results of antibiotic drug inhibiting cancer cell lines (cell viability analysis), LoVo, repeated experiment
[34] = read-out: cell viability (survival rate), LoVo, drug 10 μM, 72 hours, WST-1, OD450 nm
[35] = read-out: The results of antibiotic drug inhibiting cancer cell lines (cell viability analysis), AGS, repeated experiment
[36] = read-out: cell viability (survival rate), AGS, drug 10 μM, 72 hours, WST-1, OD450 nm
[37] = read-out: The results of antibiotic drug inhibiting cancer cell lines (cell viability analysis), HeLa, repeated experiment
[38] = read-out: cell viability (survival rate), HeLa, drug 10 μM, 72 hours, WST-1, OD450 nm
[39] = read-out: The results of antibiotic drug inhibiting cancer cell lines (cell viability analysis), PC-3, PC-3, repeated experiment
[40] = read-out: cell viability (survival rate), PC3, drug 10 μM, 72 hours, WST-1, OD450 nm
[41] = read-out: The results of antibiotic drug inhibiting cancer cell lines (cell viability analysis), TSGH-8301, TSGH-8301, repeated experiment
[42] = read-out: cell viability (survival rate), TSGH, drug 10 μM, 72 hours, WST-1, OD450 nm
[43] = read-out: The results of antibiotic drug inhibiting cancer cell lines (cell viability analysis), HepG2, HepG2, repeated experiment
[44] = read-out: cell viability (survival rate), HepG2, drug 10 μM, 72 hours, WST-1, OD450 nm
[45] = read-out: The results of antibiotic drug inhibiting cancer cell lines (cell viability analysis), H1650, H1650, repeated experiment
[46] = read-out: cell viability (survival rate), H1650, drug 10 μM, 72 hours, WST-1, OD450 nm
[47] = read-out: The results of antibiotic drug inhibiting cancer cell lines (cell viability analysis), A375, A375, repeated experiment
[48] = read-out: cell viability (survival rate), A375, drug 10 μM, 72 hours, WST-1, OD450 nm

| SMILES | viability at 10 µM [1, 27] | viability at 10 µM [1, 28] | viability at 10 µM [2, 29] | viability at 10 µM [2, 30] | viability at 10 µM [3] | viability at 10 µM [4] | viability at 10 µM [5, 31] | viability at 10 µM [5, 32] | viability at 10 µM [6] | viability at 10 µM [7] | viability at 10 µM [8] | viability at 10 µM [9, 33] | viability at 10 µM [9, 34] | viability at 10 µM [10, 35] | viability at 10 µM [10, 36] | viability at 10 µM [11] | viability at 10 µM [12, 37] | viability at 10 µM [12, 38] | viability at 10 µM [14] | viability at 10 µM [15, 39] | further results |
| --- | --- | --- | --- | --- | --- | --- | --- | --- | --- | --- | --- | --- | --- | --- | --- | --- | --- | --- | --- | --- | --- |
| Cc1cc2c(s1)Nc1ccccc1N=C2N1CCN(C)CC1 [Olanzapine (Zyprexa), Olanzapine] | 106% | 88% | 125% | 80.1% | 65.9% | 110% | 86.8% | 125% | 105% | 111% | 91.8% | 81.4% | 88.5% | 122% | 84.2% | 132% | 121% | 106% | 118% | 113% | viability at 10 µM [13]: 84.2%; viability at 10 µM [15, 40]: 92.2%; viability at 10 µM [16, 41]: 152%; viability at 10 µM [16, 42]: 58.7%; viability at 10 µM [17, 43]: 114%; viability at 10 µM [17, 44]: 93.3%; viability at 10 µM [18]: 96.8%; viability at 10 µM [19]: 66%; viability at 10 µM [20, 45]: 107%; viability at 10 µM [20, 46]: 109%; viability at 10 µM [21]: 59.3%; viability [22]: 124%; viability at 10 µM [23, 47]: 98.3%; viability at 10 µM [23, 48]: 91.9%; viability at 10 µM [24]: 98.2% |
| Cc1noc(NS(=O)(=O)c2ccc(N)cc2)c1C [Sulfisoxazole] | 105% | 39.4% | 105% | 48.4% | 67.1% | 90.7% | 106% | 46.1% | 84.5% | 104% | 93.3% | 112% | 68.8% | 108% | 88.7% | 110% | 120% | 78.9% | 95.2% | 111% | viability at 10 µM [13]: 80.1%; viability at 10 µM [15, 40]: 36.1%; viability at 10 µM [16, 41]: 105%; viability at 10 µM [16, 42]: 93%; viability at 10 µM [17, 43]: 122%; viability at 10 µM [17, 44]: 108%; viability at 10 µM [25]: 102%; viability at 10 µM [18]: 108%; viability at 10 µM [19]: 88.6%; viability at 10 µM [20, 45]: 75.9%; viability at 10 µM [20, 46]: 73.9%; inhibition effect on different cancer cell lines [26]: significant inhibition effect; viability [22]: 97.9%; viability at 10 µM [23, 47]: 107%; viability at 10 µM [23, 48]: 65.5%; viability at 10 µM [24]: 116% |
| C=C1[C@H](CO)[C@@H](O)C[C@@H]1n1cnc2c(=O)[nH]c(N)nc21 [Entecavir hydrate] | 104% | 57.4% | 92.5% | 59.7% | 97.2% | 96.4% | 92.9% | 58.6% | 85.5% | 98.9% | 92.7% | 96.7% | 91.6% | 88.7% | 46.4% | 90.8% | 76.9% | 99.4% | 74.1% | 118% | viability at 10 µM [13]: 98.4%; viability at 10 µM [15, 40]: 81.2%; viability at 10 µM [16, 41]: 103%; viability at 10 µM [16, 42]: 53%; viability at 10 µM [17, 43]: 88.9%; viability at 10 µM [17, 44]: 98.8%; viability at 10 µM [25]: 69.5%; viability at 10 µM [18]: 109%; viability at 10 µM [19]: 85.3%; viability at 10 µM [20, 45]: 84.1%; viability at 10 µM [20, 46]: 80.8%; inhibition effect on different cancer cell lines [26]: significant inhibition effect; viability [22]: 99.9%; viability at 10 µM [23, 47]: 89%; viability at 10 µM [23, 48]: 98.6%; viability at 10 µM [24]: 96.7% |
| CC1(C)S[C@@H]2[C@H](NC(=O)Cc3ccccc3)C(=O)N2[C@H]1C(=O)O [Benzylpenicillin sodium] | 97.2% | 36.4% | 124% | 43.1% | 95.3% | 108% | 86.9% | 31.3% | 112% | 94.7% | 93.2% | 78.3% | 62.8% | 110% | 54.8% | 113% | 107% | 57.1% | 86.7% | 106% | viability at 10 µM [15, 40]: 36.1%; viability at 10 µM [16, 41]: 131%; viability at 10 µM [16, 42]: 39.6%; viability at 10 µM [17, 43]: 108%; viability at 10 µM [17, 44]: 86.4%; viability at 10 µM [25]: 97.7%; viability at 10 µM [18]: 110%; viability at 10 µM [19]: 71.5%; viability at 10 µM [20, 45]: 121%; viability at 10 µM [20, 46]: 57.1%; inhibition effect on different cancer cell lines [26]: significant inhibition effect; viability at 10 µM [21]: 67%; viability [22]: 94%; viability at 10 µM [23, 47]: 113%; viability at 10 µM [23, 48]: 51.7%; viability at 10 µM [24]: 110% |
